The target of experiment [1] is T1, Monoamine oxidase A (MAO-A) (Homo sapiens, UniProt P21397).
T1 sequence (P21397 1-527): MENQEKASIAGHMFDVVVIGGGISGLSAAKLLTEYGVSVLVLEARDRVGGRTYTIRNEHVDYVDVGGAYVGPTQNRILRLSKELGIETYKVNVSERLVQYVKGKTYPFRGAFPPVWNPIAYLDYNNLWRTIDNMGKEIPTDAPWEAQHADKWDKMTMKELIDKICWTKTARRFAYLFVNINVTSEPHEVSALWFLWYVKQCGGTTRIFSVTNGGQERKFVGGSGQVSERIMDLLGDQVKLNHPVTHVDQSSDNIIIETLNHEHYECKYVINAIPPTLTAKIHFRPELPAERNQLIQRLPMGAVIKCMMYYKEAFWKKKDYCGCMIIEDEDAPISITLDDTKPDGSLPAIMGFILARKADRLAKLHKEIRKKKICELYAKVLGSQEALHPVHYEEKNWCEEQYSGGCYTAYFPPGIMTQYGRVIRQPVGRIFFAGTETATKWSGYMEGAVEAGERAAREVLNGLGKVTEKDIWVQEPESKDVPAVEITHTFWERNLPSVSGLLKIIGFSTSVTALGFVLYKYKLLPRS
The note with it: recent data, background; cited from earlier work.

The target in experiment [2] is T2, Monoamine oxidase B (MAO-B) (Homo sapiens, UniProt P27338).
T2 construct: from tissue; host or cells: brain of living AD patients and normal control subjects (in vivo PET)
T2 sequence (P27338 1-520): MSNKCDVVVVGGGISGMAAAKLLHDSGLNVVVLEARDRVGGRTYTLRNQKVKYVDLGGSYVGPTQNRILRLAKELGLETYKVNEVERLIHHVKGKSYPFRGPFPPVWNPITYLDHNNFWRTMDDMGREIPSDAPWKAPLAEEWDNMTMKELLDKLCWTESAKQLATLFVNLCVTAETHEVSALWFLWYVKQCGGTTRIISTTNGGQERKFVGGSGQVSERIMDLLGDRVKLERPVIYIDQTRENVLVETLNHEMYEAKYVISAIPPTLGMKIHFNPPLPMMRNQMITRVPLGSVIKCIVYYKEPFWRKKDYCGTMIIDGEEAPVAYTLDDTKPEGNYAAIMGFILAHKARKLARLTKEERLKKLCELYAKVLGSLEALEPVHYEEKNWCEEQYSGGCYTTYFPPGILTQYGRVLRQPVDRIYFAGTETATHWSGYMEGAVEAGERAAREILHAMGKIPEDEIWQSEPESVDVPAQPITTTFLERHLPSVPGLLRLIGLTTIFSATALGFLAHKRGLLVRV
The experiment is described as follows: MAO-B off-target binding of tau PET tracer. Conditions: SUVP data, Example I. In kind it is in vivo.

The target of experiment [3] is T2, Monoamine oxidase B (MAO-B). The note with it: recent data, background; cited from earlier work.

For the molecule `[18F]c1ccc(-c2ccc3c(c2)[nH]c2ccncc23)cn1` [AV-1451], the MAO-A binding entry in experiment [1] is on record as “some Monoamine oxidase A (MAO-A) binding”.

Consider `CNc1ccc(-c2ccc3cc(OC[C@H](O)CF)ccc3n2)cn1` [THK5351], for which the MAO-B off-target binding result in experiment [2] was “MAO-B off-target binding in THK5351 was observed”. Also, the MAO-B binding entry in experiment [3] was “widespread Monoamine oxidase B (MAO-B) binding”.

(Values after patent US10945685B2, “System and method for normalizing standardized uptake values in brain positron emission tomography (PET) images” (New York University, priority 2018, dated 2021).)
